The source of these data is patent US7713994B2 (Wyeth LLC, priority 2005, dated 2010).

One experiment relates to BT474. The experiment can be described thus: Cytotoxicity assay (SRB), BT474. Format: cell-based. To be noted: Homo sapiens, BT-474, 144 h, BT474 cells, 6 days, SRB; read-out: In Vitro Cellular Activity IC50 BT474. The protocol: (§1) BT474, HCT-116, LoVo and MCF-7 were maintained under 7% CO2 in RPMI 1640 medium supplemented with 10% fetal bovine serum and 50 µg/ml gentamicin.
(§2) Cells were plated in 96-well microtiter dishes (12000 cells/well for BT474, 4000 cells/well for HCT-116, 6000 cells/well for LoVo and 6000 cells/well for MCF-7) in RPMI 1640 medium containing 5% fetal bovine serum and 50 µg/ml gentamicin. The cells were allowed to incubate overnight at 37° C., 7% CO2. Compound dilutions were prepared using the same medium. HCT-116, LoVo and MCF-7 cells were cultured for three days and BT474 cells were cultured for 6 days, in the presence of each compound dilution. Untreated cells were included as controls. The percentage of surviving cells was determined using a protein binding dye (sulforhodamineB, SRB) assay. Cellular protein was precipitated in each well by the addition of 0.05 ml of 50% cold trichloroacetic acid (TCA). After 1 hour, the plates were washed extensively in dH2O and dried. The sulforhodamineB dye solution (0.08 mL of 0.4% SRB in 1% acetic acid) was added to each well, kept at room temperature for ten minutes, then washed in 1% acetic acid and dried. The dye was dissolved in 10 mM Tris-HCl (150 uL) and the absorbency read at 540 nm.

The next experiment deals with MCF-7. In words: Cytotoxicity assay (SRB), MCF-7. The class given is cell-based. The note with it: Homo sapiens, MCF7, 72 h, MCF-7 cells, 3 days, SRB; read-out: In Vitro Cellular Activity IC50 MCF-7. Here is the method:
as §1, §2

The subject of a further experiment is HCT-116. The experiment can be described thus: Cytotoxicity assay (SRB), HCT-116. The class given is cell-based. To be noted: Homo sapiens, HCT-116, 72 h, HCT116 cells, 3 days, SRB; read-out: In Vitro Cellular Activity IC50 HCT116. Here is the method:
as §1, §2

The next experiment concerns the target T1, cyclin D1/cdk 4 enzyme (Homo sapiens, UniProt P11802).
T1 construct: made in house; host or cells: Sf9 insect cells, recombinant baculovirus
The experiment can be described thus: CDK4 ELISA kinase assay (phospho-Rb ser 795 detection). Format: biochemical. To be noted: In Vitro Enzyme Assay, cyclin D1/cdk 4, read-out: CDK4 IC50. A digest of the protocol:
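ELISA format: plate-bound GST-Rb, 200 μM ATP, Sf9 cyclin/CDK enzyme, 1 h at 30° C; then anti-pRb Ser795 primary overnight at 4° C, HRP secondary, TMB. IC50 after no-substrate background subtraction.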

The test system of another experiment is LoVo. The experiment can be described thus: Cytotoxicity assay (SRB), LoVo. Format: cell-based. The note with it: Homo sapiens, LoVo, 72 h, LoVo cells, 3 days, SRB; read-out: In Vitro Cellular Activity IC50 LOVO. The protocol:
as §1, §2

The structures appear in SMILES notation.

T1 sequence (P11802 whole entry, species assumed): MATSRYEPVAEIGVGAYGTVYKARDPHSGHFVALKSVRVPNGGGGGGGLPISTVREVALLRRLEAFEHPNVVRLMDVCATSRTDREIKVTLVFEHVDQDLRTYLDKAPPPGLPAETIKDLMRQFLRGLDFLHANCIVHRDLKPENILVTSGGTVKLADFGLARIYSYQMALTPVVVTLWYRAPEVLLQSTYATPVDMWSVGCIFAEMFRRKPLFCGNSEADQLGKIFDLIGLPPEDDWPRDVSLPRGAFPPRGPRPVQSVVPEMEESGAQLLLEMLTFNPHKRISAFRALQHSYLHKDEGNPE
T1 sequence (P24385 whole entry partner, species assumed): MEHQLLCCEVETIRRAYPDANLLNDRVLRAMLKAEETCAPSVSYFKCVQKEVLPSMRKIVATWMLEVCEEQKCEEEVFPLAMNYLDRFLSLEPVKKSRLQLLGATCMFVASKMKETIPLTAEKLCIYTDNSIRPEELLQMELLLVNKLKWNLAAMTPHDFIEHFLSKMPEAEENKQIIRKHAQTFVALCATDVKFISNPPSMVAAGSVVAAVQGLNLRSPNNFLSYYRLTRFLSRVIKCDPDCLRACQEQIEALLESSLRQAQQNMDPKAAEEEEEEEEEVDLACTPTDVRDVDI

Regarding `N#CCc1ccc(NC=C2C(=O)NC(=O)c3ccc(-c4cc5ccccc5s4)cc32)cc1` [Example 627, {4-[(6-Benzo[b]thiophen-2-yl-1,3-dioxo-2,3-dihydro-1H-isoquinolin-4-ylidenemethyl)-amino]-phenyl}-acetonitrile], the IC50 is 4.3 µM in the experiment on BT474; 7.3 µM with MCF-7; more than 50 µM with HCT-116; 10.4 µM at cyclin D1/cdk 4 enzyme; more than 50 µM with LoVo.
Consider `N#CCc1ccc(NC=C2C(=O)NC(=O)c3ccc(-c4ccc5[nH]ccc5c4)cc32)cc1` [Example 629, (4-{[6-(1H-Indol-5-yl)-1,3-dioxo-2,3-dihydro-1H-isoquinolin-4-ylidenemethyl]-amino}-phenyl)-acetonitrile], for which the IC50 was more than 50 µM in the experiment with BT474; 50 µM in the experiment with MCF-7; more than 50 µM in the experiment on HCT-116; 5.5 µM on cyclin D1/cdk 4 enzyme; more than 50 µM in the experiment with LoVo.
On to `NS(=O)(=O)c1ccc(CNC=C2C(=O)NC(=O)c3ccc(-c4ccc5ccccc5c4)cc32)cc1` [Example 632, 4-{[(6-Naphthalen-2-yl-1,3-dioxo-2,3-dihydro-1H-isoquinolin-4-ylidenemethyl)-amino]-methyl}-benzenesulfonamide], for which the IC50 in the experiment on BT474 is more than 50 µM; with MCF-7 it was 17.3 µM; in the experiment on HCT-116, more than 50 µM; at cyclin D1/cdk 4 enzyme, 3.1 µM; in the experiment on LoVo, 44.6 µM.
Consider `NS(=O)(=O)c1ccc(CNC=C2C(=O)NC(=O)c3ccc(-c4cc5ccccc5o4)cc32)cc1` [Example 634, 4-{[(6-Benzofuran-2-yl-1,3-dioxo-2,3-dihydro-1H-isoquinolin-4-ylidenemethyl)-amino]-methyl}-benzenesulfonamide], for which the IC50 in the experiment on BT474 is 47.8 µM; in the experiment on MCF-7, more than 50 µM; with HCT-116 it was 19.1 µM; at cyclin D1/cdk 4 enzyme, 9.9 µM; in the experiment on LoVo, 8.5 µM.
On the same counts, the results for `NS(=O)(=O)c1ccc(CNC=C2C(=O)NC(=O)c3ccc(-c4csc5ccccc45)cc32)cc1` [Example 636, 4-{[(6-Benzo[b]thiophen-3-yl-1,3-dioxo-2,3-dihydro-1H-isoquinolin-4-ylidenemethyl)-amino]-methyl}-benzenesulfonamide] are 39.7 µM, 18.4 µM, 31.2 µM, 3.4 µM and 15.8 µM.
For `O=C1NC(=O)c2ccc(-c3csc4ccccc34)cc2C1=CNCc1ccc(O)c(O)c1` [Example 645, 6-Benzo[b]thiophen-3-yl-4-[(3,4-dihydroxy-benzylamino)-methylene]-4H-isoquinoline-1,3-dione], in that order: 15.5 µM, 8.8 µM, 9 µM, 2.2 µM and 7.2 µM.
Turning to `N#CCc1ccc(NC=C2C(=O)NC(=O)c3ccc(C=Cn4ccnc4)cc32)cc1` [Example 651, (4-{[6-(2-Imidazol-1-yl-vinyl)-1,3-dioxo-2,3-dihydro-1H-isoquinolin-4-ylidenemethyl]-amino}-phenyl)-acetonitrile], the IC50 in the experiment on BT474 is more than 50 µM; in the experiment with MCF-7, 37.1 µM; with HCT-116 it was more than 50 µM; on cyclin D1/cdk 4 enzyme, 3 µM; in the experiment with LoVo it was more than 50 µM.
With `NS(=O)(=O)c1ccc(CNC=C2C(=O)NC(=O)c3ccc(C=Cc4ccccn4)cc32)cc1` [Example 652, 4-({[1,3-Dioxo-6-(2-pyridin-2-yl-vinyl)-2,3-dihydro-1H-isoquinolin-4-ylidenemethyl]-amino}-methyl)-benzenesulfonamide], the IC50 was 28.5 µM with BT474; 27 µM with MCF-7; more than 50 µM in the experiment on HCT-116; 2.4 µM at cyclin D1/cdk 4 enzyme; more than 50 µM in the experiment on LoVo.
On to `NS(=O)(=O)c1ccc(CNC=C2C(=O)NC(=O)c3ccc(C=Cc4ccccc4)cc32)cc1` [Example 654, 4-{[(1,3-Dioxo-6-styryl-2,3-dihydro-1H-isoquinolin-4-ylidenemethyl)-amino]-methyl}-benzenesulfonamide], for which the IC50 turned out to be 3.1 µM with BT474; 10.7 µM in the experiment with MCF-7; 2.4 µM with HCT-116; 2 µM at cyclin D1/cdk 4 enzyme; 13.1 µM in the experiment on LoVo.
`NS(=O)(=O)c1ccc(CNC=C2C(=O)NC(=O)c3ccc(C=CC4CCCCC4)cc32)cc1` [Example 656, 4-({[6-(2-Cyclohexyl-vinyl)-1,3-dioxo-2,3-dihydro-1H-isoquinolin-4-ylidenemethyl]-amino}-methyl)-benzenesulfonamide]: the IC50 in the experiment on BT474 amounted to 13.4 µM; in the experiment with MCF-7, 12.2 µM; with HCT-116, 12.6 µM; at cyclin D1/cdk 4 enzyme, 4.8 µM; in the experiment on LoVo, 11.7 µM.
For `O=C1NC(=O)c2ccc(C=Cc3ccc4ccccc4c3)cc2C1=CNCc1ccc(O)c(O)c1` [Example 661, 4-[(3,4-Dihydroxy-benzylamino)-methylene]-6-(2-naphthalen-2-yl-vinyl)-4H-isoquinoline-1,3-dione], in that order: 36.9 µM, 37.5 µM, more than 50 µM, 5.5 µM and more than 50 µM.
For `CN1CCN(c2ccc(NC=C3C(=O)NC(=O)c4ccc(-c5cc6ccccc6o5)cc43)cc2)CC1` [Example 669, 6-Benzofuran-2-yl-4-{[4-(4-methyl-piperazin-1-yl)-phenylamino]-methylene}-4H-isoquinoline-1,3-dione], the IC50 was 2 µM in the experiment with BT474; 2.9 µM with MCF-7; 2.9 µM with HCT-116; 9.6 µM at cyclin D1/cdk 4 enzyme; 20.6 µM in the experiment on LoVo.
For `CN1CCN(c2ccc(NC=C3C(=O)NC(=O)c4ccc(C=CCn5ccnc5)cc43)cc2)CC1` [Example 679, 6-(3-Imidazol-1-yl-propenyl)-4-{[4-(4-methyl-piperazin-1-yl)-phenylamino]-methylene}-4H-isoquinoline-1,3-dione], the IC50 in the experiment with BT474 came out at 15.5 µM; with MCF-7, 9.2 µM; in the experiment with HCT-116, 6.4 µM; on cyclin D1/cdk 4 enzyme it was 4.9 µM; with LoVo, 6.9 µM.
On the same counts, the results for `COc1ccc(-c2ccc3c(c2)C(=CNc2ccc(N4CCN(C)CC4)cc2)C(=O)NC3=O)cc1` [Example 682, 6-(4-Methoxy-phenyl)-4-{[4-(4-methyl-piperazin-1-yl)-phenylamino]-methylene}-4H-isoquinoline-1,3-dione] are 2.5 µM, 4.4 µM, 1.5 µM, 3.4 µM and 5.2 µM.
With `CN1CCN(c2ccc(NC=C3C(=O)NC(=O)c4ccc(-c5ccc(Cl)cc5)cc43)cc2)CC1` [Example 689, 6-(4-Chloro-phenyl)-4-{[4-(4-methyl-piperazin-1-yl)-phenylamino]-methylene}-4H-isoquinoline-1,3-dione], the IC50 in the experiment on BT474 amounted to 3.4 µM; with MCF-7 it was 3.8 µM; in the experiment on HCT-116, 3 µM; on cyclin D1/cdk 4 enzyme it was 4.7 µM; with LoVo, 6.7 µM.
On the same counts, the results for `CN1CCN(c2ccc(NC=C3C(=O)NC(=O)c4ccc(-c5ccccc5Cl)cc43)cc2)CC1` [Example 691, 6-(2-Chloro-phenyl)-4-{[4-(4-methyl-piperazin-1-yl)-phenylamino]-methylene}-4H-isoquinoline-1,3-dione] are 3 µM, 2.8 µM, 1.3 µM, 8.3 µM and 2.2 µM.
For `CN1CCN(c2ccc(NC=C3C(=O)NC(=O)c4ccc(-c5cccc(C=CC(=O)O)c5)cc43)cc2)CC1` [Example 699, 3-[3-(4-{[4-(4-Methyl-piperazin-1-yl)-phenylamino]-methylene}-1,3-dioxo-1,2,3,4-tetrahydro-isoquinolin-6-yl)-phenyl]-acrylic acid], in that order: more than 50 µM, more than 50 µM, 22.9 µM, 2.9 µM and more than 50 µM.
On the same counts, the results for `COc1ccc(-c2ccc3c(c2)C(=CNc2ccc(CC#N)cc2)C(=O)NC3=O)cc1` [Example 701, (4-{[6-(4-Methoxy-phenyl)-1,3-dioxo-2,3-dihydro-1H-isoquinolin-4-ylidenemethyl]-amino}-phenyl)-acetonitrile] are 39.6 µM, 34.4 µM, more than 50 µM, 6.6 µM and more than 50 µM.

The term IC50 denotes the concentration that inhibits the measured activity by half.
